Measurements from patent US20250276033A1, “COMPOSITIONS FOR IMPROVING KIDNEY FUNCTION IN PATIENTS WITH HEPATORENAL SYNDROME” (Mallinckrodt Pharmaceuticals Ireland Limited, priority 2022, published 2025).
Like-named read-outs stand apart in the source and are kept apart here. Where a SMILES comes first, the peptide text is derived from it. Bridges are numbered along the chain shown (N, C = ends).

Columns and labels:
rabbits = conditions: increased resorptions, implantation loss, fetal anomalies and deformities; cited from earlier work
patients with HRS-1 [1] = assay: ACLF grade and respiratory failure with terlipressin, double-blind placebo-controlled trial (Example 3); assay type: in vivo, human
Experimental: In FIG. 6B, the incidence of respiratory failure was based on CLIF-SOFA score definition of respiratory failure.
The study was a double-blind placebo-controlled trial. […] HRS-1 was defined as rapidly rising serum creatinine (SCr) to ≥2.25 mg/dl in <14 days without response to volume challenge or evidence of structural renal disease.
All patients were assessed for organ failure (OF) per EASL-CLIF criteria and then classified into grades of acute-on-chronic liver failure (ACLF). All patients had at minimum grade 1 ACLF due to the presence of HRS-1; grades 2 and 3 ACLF represent 2 or 3 OFs respectively. Patients were separated into into grade≤2 and grade 3 ACLF subgroups.

patients = conditions: voluntary reports; cited from earlier work
QTc interval = assay: Cardiac electrophysiology in 41 patients with HRS-1; assay type: in vivo, human; conditions: 1 mg terlipressin acetate every 6 hours up to 14 days; Fridericia correction
From the text: Increases of the mean QTc interval of <10 ms were reported.

pregnant women = conditions: single intravenous or intranasal dose, first trimester; cited from earlier work
[2] = Pharmacokinetic modeling with sparse PK samples from 69 patients with HRS-1; conditions: for AUC(0-t) / Cmax: iv
[3] = background statement; cited from earlier work
mammalian cell (CHO) = assay: In vitro mammalian cell (CHO) chromosome aberration assay
[4] = tested on: human ABC and SLC transporters; assay: Transporter inhibition and substrate studies; assay type: in vitro ADME
From the text: (§1) No significant drug-drug interactions are anticipated with terlipressin (TERLIVAZ).

bacterial = assay: In vitro bacterial reverse mutation assay
CYP enzymes = assay: CYP inhibition and induction in human liver microsomes; assay type: in vitro ADME
From the text: as §1

patients with HRS-1 [5] = assay: CONFIRM randomized, placebo-controlled, double-blind study of terlipressin plus albumin; conditions: for between-group difference in the incidence of respiratory failure SAEs / between-group difference in the incidence of respiratory failure fatal AEs: terlipressin minus placebo
Experimental: In particular, HRS-1 was defined based on modified prior criteria outlined by the International Club of Ascites (ICA), as rapidly deteriorating renal function to SCr≥2.25 mg/dl, with actual or projected doubling of SCr within 2 weeks, without improvement in renal function (<20% decrease in SCr 48 hours after both diuretic withdrawal and albumin-fluid challenge) in adult patients with cirrhosis and ascites. […] Treatment was continued to Day 14 unless the following occurred: verified HRS reversal (VHRSR), renal replacement therapy (RRT), liver transplantation (LT) or SCr at or above baseline (BL) at Day 4. VHRSR, the primary endpoint, was defined as 2 consecutive SCr values≤1.5 mg/dl, at least 2 hours apart, with subjects alive without RRT for at least 10 days after the second SCr≤1.5 mg/dL; HRS reversal (HRSR) was a decrease in SCr to ≤1.5 mg/dL. Secondary end points included HRS reversal (any SCr value 1.5 mg/dL or less during treatment), HRS reversal without RRT by day 30, HRS reversal in patients with systemic inflammatory response syndrome, and verified HRS reversal without recurrence by day 30.
The patients were at least 18 years of age, with cirrhosis, ascites, and rapidly progressive renal failure, with a SCr doubling to at least 2.25 mg/dL within 14 days. Major exclusion criteria included SCr of greater than 7.0 mg/dL, one or more large-volume paracenteses of 4 L or more within 2 days of randomization, evidence of parenchymal renal diseases or obstructive uropathy, or presence of sepsis and/or uncontrolled bacterial infection. Patients with severe cardiovascular disease or recent (within 4 weeks) renal replacement therapy (RRT) were excluded.
300 subjects were enrolled in the study. […] Patients were stratified by qualifying SCr (less than 3.4 mg/dL or 3.4 mg/dL or greater) and pre-enrollment large-volume paracentesis (at least one single event of 4 L or greater, or less than 4 L within 3 to 14 days prior to randomization).
A baseline SCr value was assessed before the patients received the assigned treatment. […] In keeping with current guidelines, it was strongly recommended that albumin (1 g/kg to a maximum of 100 g, on day 1 and 20 to 40 g/day thereafter) be administered to all subjects. If SCr decreased <30% from the baseline value on Day 4, after a minimum of 10 doses of study drug, dose increase to 2 mg every 6 hours (±30 minutes) (8 mg/day) was mandated, except in subjects with coronary artery disease or in the setting of circulatory overload, pulmonary edema, or bronchospasm. Dose resumption was permitted after interruption for adverse events except for cardiac or mesenteric ischemia, for which treatment was permanently discontinued.
The primary efficacy end point was the incidence of verified HRS reversal, defined as the percentage of patients with two consecutive SCr values no greater than 1.5 mg/dl at least 2 hours apart, while remaining alive without RRT for at least 10 days after achieving verified HRS reversal, while excluding SCr values after RRT, transjugular intrahepatic portosystemic shunt, liver transplant, or open-label vasopressor from primary end point analysis.
Secondary efficacy end points included incidence of HRS reversal, defined as the percentage of patients with an on-treatment SCr value of 1.5 mg/dl or less; durability of HRS reversal, defined as the percentage of patients with HRS reversal without RRT to day 30; incidence of HRS reversal among patients with systemic inflammatory response syndrome; and incidence of verified HRS reversal without HRS recurrence by day 30.

[6] = Pharmacokinetics and excretion in healthy subjects
mouse = assay: In vivo mouse micronucleus assay
[7] = Metabolism in blood or plasma
From the text: Once formed, lysine-vasopressin is metabolized by body tissue via various peptidase-mediated routes.

pregnant guinea pigs = conditions: doses lower than the maximum recommended human dose of 4 mg/day; cited from earlier work
[8] = human, in vivo
clinical = conditions: human, in vivo; for AUC(0-t) / Cmax: iv

NCCCC[C@H](NC(=O)[C@@H]1CCCN1C(=O)[C@@H]1CSSC[C@H](NC(=O)CNC(=O)CNC(=O)CN)C(=O)N[C@@H](Cc2ccc(O)cc2)C(=O)N[C@@H](Cc2ccccc2)C(=O)N[C@@H](CCC(N)=O)C(=O)N[C@@H](CC(N)=O)C(=O)N1)C(=O)NCC(N)=O [Terlipressin, N—[N—(N-glycylglycyl)glycyl]-8-L-lysinevasopressin] (H-GGGCYFQNCPKG-NH2; disulfide 4-9 (inferred))
reproductive toxicity finding (rabbits): embryotoxic and teratogenic | percent of patients with respiratory failure (patients with HRS-1 [1]; ACLF 3, FIG. 6C, investigator reported): much higher than placebo | incidence of respiratory failure, baseline to end of treatment (patients with HRS-1 [1]; FIGS. 6A-6B, CLIF-SOFA definition): increased incidence of respiratory failure | Adverse reactions reported from postmarketing experience (patients): headache hyponatremia, skin necrosis and gangrene | Increases of the mean QTc interval (QTc interval): < 10 ms | QTc changes from baseline (QTc interval): No clinically meaningful changes from baseline | effect in pregnancy (pregnant women): induced uterine contractions and endometrial ischemia | median Cave at steady state ([2]; 1 mg IV injection of terlipressin acetate): 14.2 ng/mL | mean Cave ([2]; 1 mg dose of terlipressin acetate IV): about 14.2 ng/ml | Vd ([2]; human, in vivo): 6.3 L | clearance ([2]; human, in vivo, 1 mg, clearance (derived typical population PK parameter), 1 mg terlipressin acetate): 457 mL/min | clearance ([2]; human, in vivo, clearance, typical population PK parameter (range)): 413 to 518 mL/min | AUC(0-t) ([2]; human, in vivo, 1 mg, AUC24h (range), 1 mg dose of terlipressin acetate IV): 61.2 to 246 ng·h/mL | Cmax ([2]; human, in vivo, 1 mg, Cmax (range), 1 mg dose of terlipressin acetate IV): 37.1 to 143 ng/mL | AUC(0-t) ([2]; human, in vivo, 1 mg, mean AUC24h, 1 mg dose of terlipressin acetate IV): ~123 ng·h/mL | Cmax ([2]; human, in vivo, 1 mg, mean Cmax, 1 mg dose of terlipressin acetate IV): ~70.5 ng/mL | AUC(0-t) ([2]; human, in vivo, 1 mg, median AUC24h at steady state, 1 mg IV injection of terlipressin acetate): 123 ng·h/mL | Cmax ([2]; human, in vivo, 1 mg, median Cmax at steady state, 1 mg IV injection of terlipressin acetate): 70.5 ng/mL | half-life ([2]; human, in vivo, terminal half-life): ~0.9 h | duration of action [3]: 2 to 10 h | half-life [3]: 6 h | mutagenicity / clastogenicity (mammalian cell (CHO)): not mutagenic or clastogenic | inhibitor and substrate of human ABC and SLC transporters [4]: little or no evidence | mutagenicity / clastogenicity (bacterial): not mutagenic or clastogenic | direct-, time-, or metabolism dependent inhibitor and inducer of CYP enzymes (CYP enzymes): little or no evidence | Treatment discontinuation due to adverse events (patients with HRS-1 [5]; 24/200 patients): 12.0% | most common adverse events that led to discontinuation (patients with HRS-1 [5]; in vivo): respiratory failure, abdominal pain, and intestinal ischemia/obstruction | subjects listed at baseline who did not receive a transplant and died by Day 90 (pre-transplant mortality) (patients with HRS-1 [5]; mitigated population, 4 subjects): 11.4% | AE leading to death up to 30 days post-treatment: Respiratory failure (patients with HRS-1 [5]; mitigated population, N = 132): 5.3 % of Subjects | Any AE leading to death up to 30 days post-treatment (patients with HRS-1 [5]; mitigated population, N = 132): 34.1 % of Subjects | Death by Day 30 (patients with HRS-1 [5]; mitigated population, N = 132): 31.8 % of Subjects | Death by Day 60 (patients with HRS-1 [5]; mitigated population, N = 132): 40.2 % of Subjects | Death by Day 90 (patients with HRS-1 [5]; mitigated population, N = 132): 44.7 % of Subjects | Serior Adverse Events (patients with HRS-1 [5]; mitigated population, N = 132): 61.4 % of Subjects | Serious adverse events: Respiratory failure (patients with HRS-1 [5]; mitigated population, N = 132): 9.8 % of Subjects | Any AE leading to death up to 30 days post-treatment (patients with HRS-1 [5]; mitigated population, N = 132, listed as terlipressin): 31.8 % of Subjects | subjects listed at baseline who did not receive a transplant and died by Day 90 (pre-transplant mortality) (patients with HRS-1 [5]; overall population, 12 subjects): 21.4% | AE leading to death up to 30 days post-treatment: Respiratory failure (patients with HRS-1 [5]; overall population, N = 200): 8.5 % of Subjects | Any AE leading to death up to 30 days post-treatment (patients with HRS-1 [5]; overall population, N = 200): 41.5 % of Subjects | Death by Day 30 (patients with HRS-1 [5]; overall population, N = 200): 39.0 % of Subjects | Death by Day 60 (patients with HRS-1 [5]; overall population, N = 200): 47.0 % of Subjects | Death by Day 90 (patients with HRS-1 [5]; overall population, N = 200): 51.0 % of Subjects | Serior Adverse Events (patients with HRS-1 [5]; overall population, N = 200): 65.0 % of Subjects | Serious adverse events: Respiratory failure (patients with HRS-1 [5]; overall population, N = 200): 13.5 % of Subjects | Any AE leading to death up to 30 days post-treatment (patients with HRS-1 [5]; overall population, N = 200, listed as terlipressin): 39.0 % of Subjects | Adverse reaction: Abdominal pain (patients with HRS-1 [5]; patients (percent), N = 200): 39 (19.5) | Adverse reaction: Bradycardia (patients with HRS-1 [5]; patients (percent), N = 200): 10 (5.0) | Adverse reaction: Diarrhea (patients with HRS-1 [5]; patients (percent), N = 200): 26 (13.0) | Adverse reaction: Dyspnea (patients with HRS-1 [5]; patients (percent), N = 200): 25 (12.5) | Adverse reaction: Fluid overload (patients with HRS-1 [5]; patients (percent), N = 200): 17 (8.5) | Adverse reaction: Nausea (patients with HRS-1 [5]; patients (percent), N = 200): 32 (16.0) | Adverse reaction: Pleural effusion (patients with HRS-1 [5]; patients (percent), N = 200): 11 (5.5) | Adverse reaction: Respiratory failure (patients with HRS-1 [5]; patients (percent), N = 200): 31 (15.5) | Adverse reaction: Sepsis (patients with HRS-1 [5]; patients (percent), N = 200): 11 (5.5) | Adverse reaction: Ischemia-related events (patients with HRS-1 [5]; patients (percent), N = 200, skin discoloration, cyanosis, ischemia and intestinal ischemia): 9 (4.5) | serious or fatal respiratory failure (patients with HRS-1 [5]; primary clinical trial): 14% | between-group difference in the incidence of respiratory failure SAEs (patients with HRS-1 [5]; mitigated population): 2.8% | between-group difference in the incidence of respiratory failure fatal AEs (patients with HRS-1 [5]; mitigated population): 3.9% | between-group difference in the incidence of respiratory failure fatal AEs (patients with HRS-1 [5]; overall population): 7.5% | between-group difference in the incidence of respiratory failure SAEs (patients with HRS-1 [5]; overall study population): 8.4% | dose-dependent changes in the elimination rate constant [6]: no dose-dependent changes | pharmacokinetic linearity [6]: linear pharmacokinetics | mutagenicity / clastogenicity (mouse): not mutagenic or clastogenic | metabolism in blood or plasma [7]: not metabolized in blood or plasma | reproductive toxicity finding (pregnant guinea pigs): marked decrease in blood flow to the uterus and placenta

NCCCC[C@H](NC(=O)[C@@H]1CCCN1C(=O)[C@@H]1CSSC[C@H](N)C(=O)N[C@@H](Cc2ccc(O)cc2)C(=O)N[C@@H](Cc2ccccc2)C(=O)N[C@@H](CCC(N)=O)C(=O)N[C@@H](CC(N)=O)C(=O)N1)C(=O)NCC(N)=O [lysine-vasopressin]
pharmacokinetic linearity [8]: linear pharmacokinetics | Vd (clinical): 1370 L | clearance (clinical; 1 mg, clearance (derived typical population PK parameter)): 5300 mL/min | clearance (clinical; clearance, typical population PK parameter (range)): 4720 to 6050 mL/min | AUC(0-t) (clinical; 1 mg, AUC24h (range)): 3.78 to 33.5 ng·h/mL | Cmax (clinical; 1 mg, Cmax (range)): 0.4 to 3.36 ng/mL | AUC(0-t) (clinical; 1 mg, mean AUC24h): 11.2 ng·h/mL | Cmax (clinical; 1 mg, mean Cmax): ~1.2 ng/mL | AUC(0-t) (clinical; 1 mg, median AUC24h at steady state): 11.2 ng·h/mL | Cmax (clinical; 1 mg, median Cmax at steady state): 1.2 ng/mL | half-life (clinical; terminal half-life): ~3 h

NC(=O)CC[C@@H]1NC(=O)[C@H](Cc2ccccc2)NC(=O)[C@H](Cc2ccc(O)cc2)NC(=O)[C@@H](N)CSSC[C@@H](C(=O)N2CCC[C@H]2C(=O)N[C@@H](CCCN=C(N)N)C(=O)NCC(N)=O)NC(=O)[C@H](CC(N)=O)NC1=O [vasopressin]
duration of action [3]: 0.5 to 1 h | half-life [3]: 0.1 h
